According to US5049551A, “5-fluorouracil, 2'-deoxy-5-fluorouridine and 1-carbomoyl-5-fluorouracil compounds” (UBE Industries, Ltd., priority 1989, dated 1991):

Tests used:
[1] = background; cited from earlier work
[2] = system: KB cell; assay: Cell proliferation inhibition, KB cells, Pharmacological test example 2; format: cell-based; settings: Homo sapiens, 5×10^3 planted, compound added after 24 hours, 5 days culture, read-out: IC50 (50% cell proliferation inhibiting concentration)
Description: To a microwell having 9 holes were planted KB cell with 5×10^3, respectively, and after 24 hours, the compound of the present invention obtained in Example 7 and 5-fluorouracil were added. After cultivating for 5 days, the number of cells were measured and from a cell proliferation inhibiting ratio-concentration curve, 50% cell proliferation inhibiting concentration (IC50 value) at which the inhibiting ratio becomes 50% was evaluated.

[3] = Acute toxicity, oral, Pharmacological test example 3; settings: in vivo, 7 week-old BDF2 female mouse, 21 days after administration, read-out: ID50 (LD50 from mortality)
Description: The compounds of the present invention obtained in Examples 4 and 7 were orally administered to 7 week-old BDF2 female mouse (10 mice per group). After 21 days from the administration, mortality of the mice was judged and LD50 value was evaluated from mortality according to the Richfield-Wilcokson method.

[4] = system: KB cell; assay: Cell proliferation inhibition, KB cells, Pharmacological test example 1; format: cell-based; settings: Homo sapiens, 2×10^4 planted, compound added after 12 hours, 5 days culture, read-out: IC50 (50% cell proliferation inhibiting concentration)

Compound	LD50 at 504 h [3] [mg/kg]	IC50 [4] [µM]	antitumor effects compared with 5-fluorouracil [1]	further results
O=c1[nH]cc(F)c(=O)[nH]1 [5-Fluorouracil, 5-fluorouracil]	928	17.7	–	antitumor activity [1]: insufficient; toxicity [1]: potent toxicity; IC50 [2]: 0.75 µM
CCCC(CCC)C(=O)NCC(=O)NCCCCCCNC(=O)n1cc(F)c(=O)[nH]c1=O [Example 7, 1-[6-[N-(2-n-propyl-n-pentanoyl)glycyl]amino-n-hexylcarbamoyl]-5-fluorouracil]	≥ 1000	–	–	IC50 [2]: 0.66 µM
CCCC(CCC)C(=O)NCC(=O)OC[C@H]1O[C@@H](n2cc(F)c(=O)[nH]c2=O)[C@H](OC(=O)CNC(=O)C(CCC)CCC)[C@@H]1OC(=O)CNC(=O)C(CCC)CCC [Example 1, 2',3',5'-tris-O-[N-(2-n-propyl-n-pentanoyl)-glycyl]-5-fluorouridine]	≥ 5000	2	–	–
O=c1[nH]c(=O)n(C2CCCO2)cc1F (centres unmarked) [Tegafur, 1-(2-tetrahydrofulyl)-5-fluorouracil]	–	–	inferior to that of 5-fluorouracil	–
CCCCCCNC(=O)n1cc(F)c(=O)[nH]c1=O [Carmofur, 1-n-hexylcarbamoyl-5-fluorouracil]	–	–	inferior to that of 5-fluorouracil	–
C[C@H]1O[C@@H](n2cc(F)c(=O)[nH]c2=O)[C@H](O)[C@@H]1O [Doxifluridine, 5'-deoxy-5-fluorouridine]	–	–	inferior to that of 5-fluorouracil	–
CCCC(CCC)C(=O)NCC(=O)OC[C@H]1O[C@@H](n2cc(F)c(=O)[nH]c2=O)[C@H](O)[C@@H]1OC(=O)CNC(=O)C(CCC)CCC [Example 4, 3',5'-bis-O-[N-(2n-propyl-n-pentanoyl)-glycyl]-5-fluorouridine]	≥ 3000	1.8	–	–
